Measurements: patent US12201602B2, “Medicament comprising combination of sepetaprost and Rho-associated coiled-coil containing protein kinase inhibitor” (SANTEN PHARMACEUTICAL CO., LTD., priority 2017, dated 2025)

What was measured:
[1] = test system: normal pressure monkeys; experiment: Intraocular pressure lowering effect of sepetaprost and netarsudil, alone and concomitantly (Example 2); type: in vivo, cynomolgus monkey; conditions: eye drop 20 μL/eye, sepetaprost 0.0003% (w/v), netarsudil 0.01% (w/v), average of 8 monkeys
Description: In order to examine usefulness of the combination of sepetaprost and a Rho-associated coiled-coil containing protein kinase inhibitor(s), the effect of lowering an intraocular pressure when sepetaprost and netarsudil which is a Rho-associated coiled-coil containing protein kinase inhibitor were administered concomitantly to experimental animals (normal pressure monkeys) was investigated. Sepetaprost was dissolved in purified water containing a solubilizing agent, and then, a sepetaprost solution with a desired concentration was prepared by using a commonly used method. […] An effect of lowering an intraocular pressure when sepetaprost and netarsudil were administered concomitantly was investigated. As a comparative subject, an effect of lowering an intraocular pressure when sepetaprost or netarsudil was administered alone was also investigated. As a control, the base of the sepetaprost solution and the base of the netarsudil solution were administered. […] Also, the intraocular pressure was measured each three times, and the average value was calculated. With respect to the changed value of the intraocular pressure (mmHg), a difference from the value of the intraocular pressure before administration at each measurement time point was calculated. […] The test was carried out in the same manner as the above-mentioned concomitant administration test except for changing the netarsudil solution to the base of the netarsudil solution. The test was carried out in the same manner as the above-mentioned concomitant administration test except for changing the sepetaprost solution to the base of the sepetaprost solution. The test was carried out in the same manner as the above-mentioned concomitant administration test except for changing the sepetaprost solution to the base of the sepetaprost solution and changing the netarsudil solution to the base of the netarsudil solution. The changes in the lowering of the intraocular pressure with the lapse of time for each administered group are shown in FIG. 2 and Table 2. The change in the intraocular pressure values are shown by an average value ±SEM of the difference from the value (0 hour) before administration of eight monkeys in each group with regard to each measurement time point of each individual. Comparison of the control group with the sepetaprost group, the netarsudil group, or the sepetaprost/netarsudil concomitant use group, and comparison of the sepetaprost/netarsudil concomitant use group with the sepetaprost group or the netarsudil group was carried out by, after carrying out the Bartlett test, in the case where dispersion is uniform, using the Dunnett test, or in the case of ununiform, using the Steel test. The significance level with respect to the control group was shown as *: p<0.05 and **: p<0.01 in the Steel test, and *: […] in the Dunnett test.

[2] = test system: normal pressure monkeys; experiment: Intraocular pressure lowering effect of sepetaprost and ripasudil, alone and concomitantly (Example 1); type: in vivo, cynomolgus monkey; conditions: eye drop 20 μL/eye, sepetaprost 0.0003% (w/v), ripasudil 0.4% (w/v), average of 8 monkeys
Description: In order to examine usefulness of the combination of sepetaprost and a Rho-associated coiled-coil containing protein kinase inhibitor(s), the effect of lowering an intraocular pressure when sepetaprost and ripasudil which is a Rho-associated coiled-coil containing protein kinase inhibitor were administered concomitantly to experimental animals (normal pressure monkeys) was investigated. Sepetaprost was dissolved in purified water containing a solubilizing agent, and then, a sepetaprost solution with a desired concentration was prepared by using a commonly used method. Commercially available ripasudil eye drop (Kowa Company, Ltd., […] (Registered Trademark) eye drops 0.4%) was used as it was. An effect of lowering an intraocular pressure when sepetaprost and ripasudil were administered concomitantly was investigated. As a comparative subject, an effect of lowering an intraocular pressure when sepetaprost or ripasudil was administered alone was also investigated. As a control, the base of the sepetaprost solution and physiological saline solution were administered. • Sepetaprost solution: 0.0003% (w/v) sepetaprost solution (volume of eye dropped: 20 μL/eye) • Ripasudil solution: 0.4% (w/v) ripasudil solution (trade name: […] Also, the intraocular pressure was measured each three times, and the average value was calculated. With respect to the changed value of the intraocular pressure (mmHg), a difference from the value of the intraocular pressure before administration at each measurement time point was calculated. […] The test was carried out in the same manner as the above-mentioned concomitant administration test except for changing the ripasudil solution to the physiological saline solution. The test was carried out in the same manner as the above-mentioned concomitant administration test except for changing the sepetaprost solution to the base of the sepetaprost solution. The test was carried out in the same manner as the above-mentioned concomitant administration test except for changing the sepetaprost solution to the base of the sepetaprost solution and changing the ripasudil solution to the physiological saline solution. The changes in the lowering of the intraocular pressure with the lapse of time for each administered group are shown in FIG. 1 and Table 1. The changes in the intraocular pressure values are shown by an average value ±SEM of the difference from the value (0 hour) before administration of eight monkeys in each group with regard to each measurement time point of each individual. Comparison of the control group with the sepetaprost group, the ripasudil group, or the sepetaprost/ripasudil concomitant use group, and comparison of the sepetaprost/ripasudil concomitant use group with the sepetaprost group or the ripasudil group was carried out by, after carrying out the Bartlett test, in the case where dispersion is uniform, using the Dunnett test, or in the case of ununiform, using the Steel test. The significance level with respect to the control group was shown as ##: p<0.01 in the Dunnett test, and *: p<0.05 and **: p<0.01 in the Steel test.

SMILES: Cc1ccc(C(=O)OCc2ccc([C@@H](CN)C(=O)Nc3ccc4cnccc4c3)cc2)c(C)c1 [Netarsudil, [4-[(1S)-1-(aminomethyl)-2-(isoquinolin-6-ylamino)-2-oxoethyl]phenyl]methyl 2,4-dimethylbenzoate]
- changed value of the intraocular pressure (difference from value before administration) ([1]; 2 hours after dropping): −0.4 mmHg
- changed value of the intraocular pressure (difference from value before administration) ([1]; 4 hours after dropping): −2.2 mmHg
- changed value of the intraocular pressure (difference from value before administration) ([1]; 6 hours after dropping): −2.1 mmHg
- changed value of the intraocular pressure (difference from value before administration) ([1]; 8 hours after dropping): −2.3 mmHg
- changed value of the intraocular pressure (difference from value before administration) ([1]; 24 hours after dropping): −0.6 mmHg

SMILES: C[C@H]1CNCCCN1S(=O)(=O)c1cccc2cncc(F)c12 [Ripasudil, (S)-(−)-1-(4-fluoro-5-isoquinolinesulfonyl)-2-methyl-1,4-homopiperazine]
- changed value of the intraocular pressure (difference from value before administration) ([2]; 2 hours after dropping): −2.4 mmHg
- changed value of the intraocular pressure (difference from value before administration) ([2]; 4 hours after dropping): −1.8 mmHg
- changed value of the intraocular pressure (difference from value before administration) ([2]; 6 hours after dropping): −1.6 mmHg
- changed value of the intraocular pressure (difference from value before administration) ([2]; 8 hours after dropping): −1.5 mmHg
- changed value of the intraocular pressure (difference from value before administration) ([2]; 24 hours after dropping): −0.4 mmHg

SMILES: CC(C)OC(=O)CCC[C@H]1CC[C@@H]2[C@@H](/C=C/[C@@H](O)COc3cc(F)ccc3F)[C@H](O)C[C@@H]2OC1 [Sepetaprost, 2-propanyl 4-{(3S, 5aR, 6R, 7R, 8aS)-6-[(1E, 3R)-4-(2,5-difluorophenoxy)-3-hydroxy-1-buten-1-yl]-7-hydroxyoctahydro-2H-cyclopenta[b]oxepin-3-yl}butanoate]
- changed value of the intraocular pressure (difference from value before administration) ([2]; 2 hours after dropping): −0.1 mmHg
- changed value of the intraocular pressure (difference from value before administration) ([2]; 4 hours after dropping): −0.9 mmHg
- changed value of the intraocular pressure (difference from value before administration) ([2]; 6 hours after dropping): −1.8 mmHg
- changed value of the intraocular pressure (difference from value before administration) ([2]; 8 hours after dropping): −1.9 mmHg
- changed value of the intraocular pressure (difference from value before administration) ([2]; 24 hours after dropping): −0.6 mmHg
- changed value of the intraocular pressure (difference from value before administration) ([1]; 2 hours after dropping): −0.2 mmHg
- changed value of the intraocular pressure (difference from value before administration) ([1]; 4 hours after dropping): −1.6 mmHg
- changed value of the intraocular pressure (difference from value before administration) ([1]; 6 hours after dropping): −2.2 mmHg
- changed value of the intraocular pressure (difference from value before administration) ([1]; 8 hours after dropping): −2.0 mmHg
- changed value of the intraocular pressure (difference from value before administration) ([1]; 24 hours after dropping): −1.1 mmHg
